The test system of assay [1] is T-cell. Description: IL-2 secretion from T-cells co-stimulated with anti-CD3 and anti-CD28 antibody (Biological Example 2). Type of assay: cell-based, human. The note with it: Homo sapiens, T-cell, primary human total T-cells, baseline = anti-CD3/anti-CD28 stimulated cells without inhibitor, read-out: IL-2 secretion, Anti-CD3/Anti-CD28 stimulation, fold change over baseline; for fold induction at 0.3 µM: 0.3 μM compound; for fold induction at 1 µM: 1 μM compound. A digest of the protocol: (§1)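 Values are fold-change over baseline: readings (IL-2 release, CD25 staining) from inhibitor-treated T-cells divided against untreated cells […]. No detailed procedure stated.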

Assay [2] deals with T-cell. Briefly: CD25 cell surface staining on T-cells stimulated with anti-CD3 antibody alone (Biological Example 2). Type of assay: cell-based. The settings on record: 1 μM compound, primary human total T-cells, baseline = anti-CD3/anti-CD28 stimulated cells without inhibitor, read-out: CD25 staining, Anti-CD3 stimulation, fold change over baseline.
The target in assay [3] is T1, Cbl-b (Homo sapiens, UniProt Q13191). Description: Cbl-b inhibition assay (Cbl-b activity assay, FRET, Biological Example 1; 100 mM NaCl, 60 nM Src kinase). The class given is biochemical. The note with it: upper bound stated in text lists; read-out: IC50 values in the Cbl-b inhibition assay of Biological Example 1. The gist of the method: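 TR-FRET assay using N-terminal biotinylated Avi-tagged Cbl-b bound to streptavidin-terbium, Src kinase for Cbl-b phosphorylation, and UbcH5B irreversibly conjugated to Bodipy-Fluorescein-ubiquitin. Phosphorylated Cbl-b binds UbcH5B-Ub, bringing the fluorophores together; inhibition is read as loss of FRET signal.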

Assay [4] addresses T1, Cbl-b. Briefly: Cbl-b activity assay (Cbl-b inhibition assay), TR-FRET of Cbl-b interaction with UbcH5B-Ub. The note with it: assay buffer with 100 mM NaCl, 60 nM Src kinase; read-out: Cbl-b activity IC50. Type of assay: biochemical. The gist of the method: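 Compound-treated Cbl-b was incubated 1.5 h with Src kinase (60 nM final; 30 nM for asterisked values, which also used 50 mM instead of 100 mM NaCl), 1 mM ATP and 5 mM MgCl2. Binding to fluorescent Ub-loaded UbcH5B (C85K mutant) was then read by TR-FRET after 1 h more.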
A general note: In TR-FRET formats the signal depends on donor and acceptor labels being close together.

Assay [5] concerns T-cell. Briefly: IL-2 secretion from T-cells stimulated with anti-CD3 antibody alone (Biological Example 2). Type of assay: cell-based. The note with it: 1 μM compound, primary human total T-cells, read-out: IL-2 secretion, Anti-CD3 stimulation, fold change over baseline.
Assay [6] concerns T-cell. Description: CD25 cell surface staining on T-cells co-stimulated with anti-CD3 and anti-CD28 antibody (Biological Example 2). The note with it: Homo sapiens, T-cell, primary human total T-cells, baseline = anti-CD3/anti-CD28 stimulated cells without inhibitor, read-out: CD25 staining, Anti-CD3/Anti-CD28 stimulation, fold change over baseline; for fold induction at 0.3 µM: 0.3 μM compound; for fold induction at 1 µM: 1 μM compound. The class given is cell-based, human. The gist of the method: as §1

For 13 compounds, fold induction and IC50 results are on record in patent US20220324835A1 (Nurix Therapeutics, Inc., priority 2018, published 2022).

T1 sequence (Q13191 36-427): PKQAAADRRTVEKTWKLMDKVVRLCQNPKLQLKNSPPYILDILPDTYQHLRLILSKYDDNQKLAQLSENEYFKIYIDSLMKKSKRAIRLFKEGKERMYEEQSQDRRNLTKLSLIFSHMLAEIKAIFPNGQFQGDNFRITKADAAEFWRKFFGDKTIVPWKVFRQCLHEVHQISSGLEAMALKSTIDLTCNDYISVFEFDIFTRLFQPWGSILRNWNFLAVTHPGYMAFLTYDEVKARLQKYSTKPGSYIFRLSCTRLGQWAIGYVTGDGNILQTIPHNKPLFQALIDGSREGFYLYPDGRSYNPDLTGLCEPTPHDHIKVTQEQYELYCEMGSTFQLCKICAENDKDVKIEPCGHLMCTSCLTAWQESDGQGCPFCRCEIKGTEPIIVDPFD

As for `Cn1cnnc1CC1(c2cccc(NC(=O)c3nc(C4CC4)cs3)c2)COC1` [Compound 493, 4-cyclopropyl-N-(3-{3-[(4-methyl-1,2,4-triazol-3-yl)methyl]oxetan-3-yl}phenyl)-1,3-thiazole-2-carboxamide], the values for the fold induction at 0.3 µM with T-cell [1] and with T-cell [6] were less than 1 and 1.01 to 1.3, respectively. Further, the fold induction at 1 µM is 1.01 to 2.5 with T-cell [1], less than 0.6 in the assay with T-cell [2], less than 0.05 in the assay with T-cell [5] and 1.01 to 1.3 in the assay with T-cell [6]. For the same compound, the IC50 (in general, the midpoint of a concentration-inhibition curve) was not above 1000 nM at Cbl-b [3] and 301 to 1000 nM on Cbl-b [4].

Consider `Cn1cnnc1CC1(c2cccc(NC(=O)c3csc(C4CC4)n3)c2)COC1` [Compound 494, 2-cyclopropyl-N-(3-{3-[(4-methyl-1,2,4-triazol-3-yl)methyl]oxetan-3-yl}phenyl)-1,3-thiazole-4-carboxamide], for which the fold induction at 0.3 µM in the assay with T-cell [1] is 1.01 to 2.5; in the assay on T-cell [6], 1.01 to 1.3. The fold induction at 1 µM in the assay with T-cell [1] is 1.01 to 2.5; with T-cell [2] it was 0.601 to 0.8; in the assay on T-cell [5] it was 0.051 to 0.1; with T-cell [6] it was 1.01 to 1.3. Besides, the IC50 on Cbl-b [3] is not above 300 nM; on Cbl-b [4], 100 to 300 nM.

Regarding `Cn1cnnc1CC1(c2cccc(NC(=O)c3cc(CN4CCC5CC54)cc(C4CC4)n3)c2)COC1` (centres unmarked) [Compound 497, 4-{2-azabicyclo[3.1.0]hexan-2-ylmethyl}-6-cyclopropyl-N-(3-{3-[(4-methyl-1,2,4-triazol-3-yl)methyl]oxetan-3-yl}phenyl)pyridine-2-carboxamide], the fold induction at 0.3 µM was more than 7.5 in the assay with T-cell [1] and 1.31 to 1.5 with T-cell [6]. The fold induction at 1 µM with T-cell [1] was more than 7.5; with T-cell [2], more than 1; in the assay on T-cell [5] it was more than 0.201; in the assay with T-cell [6], 1.31 to 1.5. In addition, the IC50 is not above 100 nM on Cbl-b [3] and less than 100 nM on Cbl-b [4].

In the case of `Cn1cnnc1CC1(c2cccc(NC(=O)c3cc(CN4C[C@H]5C[C@H]5C4)cc(C4CC4)n3)c2)COC1` [Compound 498, 4-{3-azabicyclo[3.1.0]hexan-3-ylmethyl}-6-cyclopropyl-N-(3-{3-[(4-methyl-1,2,4-triazol-3-yl)methyl]oxetan-3-yl}phenyl)pyridine-2-carboxamide], the figures for the fold induction at 0.3 µM with T-cell [1] and with T-cell [6] were more than 7.5 and 1.31 to 1.5, respectively. The fold induction at 1 µM in the assay on T-cell [1] was more than 7.5; with T-cell [2] it was more than 1; with T-cell [5], more than 0.201; with T-cell [6], 1.31 to 1.5. In addition, the IC50 was not above 100 nM at Cbl-b [3] and less than 100 nM at Cbl-b [4].

On to `Cn1cnnc1CC1(c2cccc(NC(=O)c3cc(CN4C[C@@H]5[C@H](C4)C5(F)F)cc(C4CC4)n3)c2)COC1` [Compound 499], for which the fold induction at 0.3 µM in the assay on T-cell [1] was more than 7.5; in the assay with T-cell [6], 1.31 to 1.5. Moreover, the fold induction at 1 µM in the assay on T-cell [1] was more than 7.5; in the assay with T-cell [2] it was more than 1; with T-cell [5], more than 0.201; with T-cell [6] it was 1.31 to 1.5. Moreover, the 50% inhibitory concentration (IC50) on Cbl-b [3] is not above 100 nM; at Cbl-b [4] it was less than 100 nM.

Consider `Cc1conc1CC1(c2cccc(NC(=O)c3cc(CN4CCC5(CC5)C4)cc(C4CC4)n3)c2)COC1` [Compound 500, 4-{5-azaspiro[2.4]heptan-5-ylmethyl}-6-cyclopropyl-N-(3-{3-[(4-methyl-1,2-oxazol-3-yl)methyl]oxetan-3-yl}phenyl)pyridine-2-carboxamide], for which the values for the fold induction at 0.3 µM with T-cell [1] and in the assay with T-cell [6] were more than 7.5 and 1.31 to 1.5, respectively. Moreover, the fold induction at 1 µM in the assay with T-cell [1] is more than 7.5; in the assay with T-cell [2], more than 1; in the assay with T-cell [5] it was more than 0.201; in the assay with T-cell [6], 1.31 to 1.5. Further, the IC50 on Cbl-b [3] was not above 100 nM; at Cbl-b [4], less than 100 nM.

For `Cn1cnnc1CC1(c2cccc(NC(=O)c3cc(OC(F)F)cc(C4CC4)n3)c2)COC1` [Compound 502, 6-cyclopropyl-4-(difluoromethoxy)-N-(3-{3-[(4-methyl-1,2,4-triazol-3-yl)methyl]oxetan-3-yl}phenyl)pyridine-2-carboxamide], the fold induction at 0.3 µM in the assay with T-cell [1] lay within 5 to 7.5; in the assay with T-cell [6], 1.01 to 1.3. For the same compound, the fold induction at 1 µM with T-cell [1] is more than 7.5; in the assay on T-cell [2] it was more than 1; with T-cell [5], more than 0.201; in the assay on T-cell [6], 1.01 to 1.3. Besides, the results for the IC50 on Cbl-b [3] and on Cbl-b [4] were not above 100 nM and less than 100 nM, respectively.

Take `CN(C)Cc1cc(C(=O)Nc2cccc(C3(Cc4nncn4C)COC3)c2)nc(C2CC2)n1` [Compound 503, 2-cyclopropyl-6-[(dimethylamino)methyl]-N-(3-{3-[(4-methyl-1,2,4-triazol-3-yl)methyl]oxetan-3-yl}phenyl)pyrimidine-4-carboxamide]: the values for the fold induction at 0.3 µM in the assay on T-cell [1] and in the assay on T-cell [6] were 2.51 to 5 and 1.31 to 1.5, respectively. Also, the fold induction at 1 µM was more than 7.5 in the assay with T-cell [1], more than 1 in the assay on T-cell [2], 0.101 to 0.15 with T-cell [5] and 1.31 to 1.5 with T-cell [6]. In addition, the IC50 at Cbl-b [3] was not above 100 nM; on Cbl-b [4], less than 100 nM.

For the compound `Cn1cnnc1CC1(c2cccc(NC(=O)c3cc(CN4CCC4)nc(C4CC4)n3)c2)COC1` [Compound 504, 6-(azetidin-1-ylmethyl)-2-cyclopropyl-N-(3-{3-[(4-methyl-1,2,4-triazol-3-yl)methyl]oxetan-3-yl}phenyl)pyrimidine-4-carboxamide], the figures for the fold induction at 0.3 µM with T-cell [1] and in the assay on T-cell [6] were 2.51 to 5 and 1.01 to 1.3, respectively. In addition, the fold induction at 1 µM was 5 to 7.5 with T-cell [1], 0.801 to 1 in the assay with T-cell [2], 0.051 to 0.1 with T-cell [5] and 1.31 to 1.5 with T-cell [6]. In addition, the IC50 on Cbl-b [3] was not above 100 nM; on Cbl-b [4] it was less than 100 nM.

Take `Cn1cnnc1CC1(c2cccc(NC(=O)c3cc(CN4CC[C@H](O)C4)nc(C4CC4)n3)c2)COC1` [Compound 505, 2-cyclopropyl-6-{[(3S)-3-hydroxypyrrolidin-1-yl]methyl}-N-(3-{3-[(4-methyl-1,2,4-triazol-3-yl)methyl]oxetan-3-yl}phenyl)pyrimidine-4-carboxamide]: the results for the fold induction at 0.3 µM in the assay with T-cell [1] and in the assay on T-cell [6] were 1.01 to 2.5 and 1.01 to 1.3, respectively. Moreover, the fold induction at 1 µM with T-cell [1] is 2.51 to 5; with T-cell [2], 0.601 to 0.8; with T-cell [5] it was 0.051 to 0.1; with T-cell [6] it was 1.01 to 1.3. Also, the IC50 at Cbl-b [3] is not above 100 nM; on Cbl-b [4], less than 100 nM.

Regarding `Cc1conc1CC1(c2cccc(NC(=O)c3cc(CN4CC[C@H](O)C4)nc(C4CC4)n3)c2)COC1` [Compound 507, 2-cyclopropyl-6-{[(3S)-3-hydroxypyrrolidin-1-yl]methyl}-N-(3-{3-[(4-methyl-1,2-oxazol-3-yl)methyl]oxetan-3-yl}phenyl)pyrimidine-4-carboxamide], the results for the fold induction at 0.3 µM in the assay on T-cell [1] and in the assay on T-cell [6] were more than 7.5 and 1.31 to 1.5, respectively. The fold induction at 1 µM in the assay on T-cell [1] was more than 7.5; with T-cell [2] it was more than 1; in the assay on T-cell [5] it was more than 0.201; in the assay on T-cell [6], 1.31 to 1.5. For the same compound, the results for the IC50 at Cbl-b [3] and on Cbl-b [4] were not above 100 nM and less than 100 nM, respectively.

Regarding `Cc1conc1CC1(c2cccc(NC(=O)c3cc(CN4CCC5(CC5)C4)nc(C4CC4)n3)c2)COC1` [Compound 508, 6-{5-azaspiro[2.4]heptan-5-ylmethyl}-2-cyclopropyl-N-(3-{3-[(4-methyl-1,2-oxazol-3-yl)methyl]oxetan-3-yl}phenyl)pyrimidine-4-carboxamide], the fold induction at 0.3 µM is more than 7.5 in the assay with T-cell [1] and 1.31 to 1.5 in the assay on T-cell [6]. The fold induction at 1 µM in the assay on T-cell [1] is more than 7.5; in the assay on T-cell [2] it was more than 1; in the assay on T-cell [5], more than 0.201; in the assay on T-cell [6] it was 1.31 to 1.5. In addition, the IC50 on Cbl-b [3] is not above 100 nM; on Cbl-b [4], less than 100 nM.

In the case of `Cc1cc(C(=O)Nc2cccc(C3(Cc4nocc4C)COC3)c2)nc(C2CC2)n1` [Compound 509, 2-cyclopropyl-6-methyl-N-(3-{3-[(4-methyl-1,2-oxazol-3-yl)methyl]oxetan-3-yl}phenyl)pyrimidine-4-carboxamide], the fold induction at 0.3 µM in the assay with T-cell [1] is more than 7.5; in the assay on T-cell [6], 1.31 to 1.5. In addition, the fold induction at 1 µM in the assay on T-cell [1] was more than 7.5; in the assay on T-cell [2], more than 1; in the assay with T-cell [5], more than 0.201; with T-cell [6], 1.31 to 1.5. Also, the figures for the IC50 on Cbl-b [3] and at Cbl-b [4] were not above 100 nM and less than 100 nM, respectively.
